Laboratory results reported in US4147787A, “4,5,6,7-Tetrahydro-thieno[2,3-c]-and [3,2-c]-pyridines, and therapeutic compositions containing the same” (Parcor, priority 1977, dated 1979).

What was measured:
[1] = system: A.D.P. induced blood-platelet aggregation; assay: A.D.P. induced blood-platelet aggregation; format: in vivo, Wistar rats; settings: Rattus norvegicus, po; 100 mg/kg orally, rats, 3 hours after treatment, 10 μM A.D.P. solution; read-out: Percent inhibition of blood-platelet aggregation, A.D.P.
Procedure: (§1) A blood sample is taken from the jugular vein of Wistar rats. From this citrated blood and after centifugation, a plasma is reconstituted which contains 600,000 ± 20,000 blood-platelets per ml, which plasma is then used in all aggregation determinations.
(§2) 0.4 ml plasma is placed in a siliconized tube provided with a magnet bar, also siliconized. The tube is introduced into an aggregometer connected to an apparatus which records optical density variations. When light transmission has attained a stable value, 0.5 ml of a solution containing 10 μM A.D.P. (adenosinediphosphate) is added to the tube.
(§3) Blood-platelet aggregation induces an increase of light transmission, followed by a decrease subsequent to the deaggregation phase.
(§4) Different groups of 20 rats each are used, each group being orally administered 100 mg/kg of a test derivative.

[2] = Acute toxicity (LD50, method according to Miller and Tainter); settings: mouse, in vivo, mice, intravenous, read-out: LD50 /24h/kg body weight
[3] = system: Collagen-induced blood-platelet aggregation; assay: Collagen-induced blood-platelet aggregation; format: in vivo, Wistar rats; settings: Rattus norvegicus, po; 100 mg/kg orally, rats, 3 hours after treatment; read-out: Percent inhibition of blood-platelet aggregation, Collagen
Procedure: as §1, §2, §3
The A.D.P. solution is substituted with a collagen (bovine tendon extract) solution.
as §4

[4] = system: rat globules (red corpuscles); assay: In vitro anti-sludge activity, preventive treatment (protamine sulfate); format: cell-based
Procedure: (§5) Said activity was investigated in vitro and in vivo in rats.
(§6) Thrice washed rat globules are diluted to 1/250 in physiological saline. In each of 5 tubes are placed 0.6 ml of this suspension and 0.2 ml physiological saline. To each tube is then added 0-25-50-100 and 200 μg, respectively, of the test derivative contained in 0.2 ml solution. After incubation for one hour at 37° C., 0.2 ml of a solution containing 125 μg/ml protamine sulfate are added, after which the tube is then incubated again for 0.5 hour at 37° C. The globules of each tube are then examined with a Mallases cell, and the percent free globules and the percent aggregates formed by 2, 3, 4, 5 etc.. globules is then recorded.

[5] = system: rat globules (red corpuscles); assay: In vitro anti-sludge activity, curative procedure (protamine sulfate); format: cell-based; settings: 25 μg
Procedure: as §5, §6
The experiment was repeated according to a "curvative" procedure; the red corpuscles were first contacted with protamine sulfate and, after incubation for 0.5 hour, 0.2 ml containing 25 μg of test derivative were added thereto, which operation is followed by another incubation for one hour at 37° C. The results obtained are reported in Table III, in which the percent agglomerates as a function of size is indicated.

O=C(O)C1Cc2sccc2CN1Cc1ccccc1Cl (centres unmarked) [Example 23, 5-o-Chlorobenzyl-6-carboxy-4,5,6,7-tetrahydro-thieno[3,2-c]pyridine]
inhibition at 100 mg/kg [1]: 63.9%
LD50 at 24 h [2]: 180 mg/kg
inhibition at 100 mg/kg [3]: 95.2%
percent agglomerates, size 2 ([4]; 25 μg): 21%
percent agglomerates, size 3 ([4]; 25 μg): 16%
percent agglomerates, size 4 ([4]; 25 μg): 3%
percent agglomerates, size 5 ([4]; 25 μg): 0%
percent agglomerates, size 6 ([4]; 25 μg): 0%
percent agglomerates, size 7 ([4]; 25 μg): 0%
percent agglomerates, size 8 ([4]; 25 μg): 0%
percent agglomerates, size 9 ([4]; 25 μg): 0%
percent agglomerates, size 10 ([4]; 25 μg): 0%
percent agglomerates, size 11 ([4]; 25 μg): 0%
percent agglomerates, size 12 ([4]; 25 μg): 0%
percent agglomerates, size 13 ([4]; 25 μg): 0%
percent free red corpuscles (size of agglomerates 1) ([4]; 25 μg): 60%
percent agglomerates, size 2 ([4]; 50 μg): 25%
percent agglomerates, size 3 ([4]; 50 μg): 6%
percent agglomerates, size 4 ([4]; 50 μg): 4%
percent agglomerates, size 5 ([4]; 50 μg): 0%
percent agglomerates, size 6 ([4]; 50 μg): 0%
percent agglomerates, size 7 ([4]; 50 μg): 0%
percent agglomerates, size 8 ([4]; 50 μg): 0%
percent agglomerates, size 9 ([4]; 50 μg): 0%
percent agglomerates, size 10 ([4]; 50 μg): 0%
percent agglomerates, size 11 ([4]; 50 μg): 0%
percent agglomerates, size 12 ([4]; 50 μg): 0%
percent agglomerates, size 13 ([4]; 50 μg): 0%
percent free red corpuscles (size of agglomerates 1) ([4]; 50 μg): 65%
percent agglomerates, size 2 ([4]; 100 μg): 14%
percent agglomerates, size 3 ([4]; 100 μg): 5%
percent agglomerates, size 4 ([4]; 100 μg): 1%
percent agglomerates, size 5 ([4]; 100 μg): 0%
percent agglomerates, size 6 ([4]; 100 μg): 0%
percent agglomerates, size 7 ([4]; 100 μg): 0%
percent agglomerates, size 8 ([4]; 100 μg): 0%
percent agglomerates, size 9 ([4]; 100 μg): 0%
percent agglomerates, size 10 ([4]; 100 μg): 0%
percent agglomerates, size 11 ([4]; 100 μg): 0%
percent agglomerates, size 12 ([4]; 100 μg): 0%
percent agglomerates, size 13 ([4]; 100 μg): 0%
percent free red corpuscles (size of agglomerates 1) ([4]; 100 μg): 78%
percent agglomerates, size 2 ([4]; 200 μg): 11%
percent agglomerates, size 3 ([4]; 200 μg): 4%
percent agglomerates, size 4 ([4]; 200 μg): 2%
percent agglomerates, size 5 ([4]; 200 μg): 0%
percent agglomerates, size 6 ([4]; 200 μg): 0%
percent agglomerates, size 7 ([4]; 200 μg): 0%
percent agglomerates, size 8 ([4]; 200 μg): 0%
percent agglomerates, size 9 ([4]; 200 μg): 0%
percent agglomerates, size 10 ([4]; 200 μg): 0%
percent agglomerates, size 11 ([4]; 200 μg): 0%
percent agglomerates, size 12 ([4]; 200 μg): 0%
percent agglomerates, size 13 ([4]; 200 μg): 0%
percent free red corpuscles (size of agglomerates 1) ([4]; 200 μg): 83%
percent agglomerates, size 2 [5]: 10%
percent agglomerates, size 3 [5]: 4%
percent agglomerates, size 4 [5]: 1%
percent agglomerates, size 5 [5]: 0%
percent agglomerates, size 6 [5]: 0%
percent agglomerates, size 7 [5]: 0%
percent agglomerates, size 8 [5]: 0%
percent agglomerates, size 9 [5]: 0%
percent agglomerates, size 10 [5]: 0%
percent free red corpuscles (size of agglomerates 1) [5]: 85%

CN1Cc2ccsc2CC1C(=O)O (centres unmarked) [Example 25, 5-Methyl-6-carboxy-4,5,6,7-tetrahydro-thieno[3,2-c]pyridine]
inhibition at 100 mg/kg [1]: 61.6%
LD50 at 24 h [2]: 325 mg/kg
inhibition at 100 mg/kg [3]: 92.4%

COC(=O)C1Cc2sc(Cl)cc2CN1 (centres unmarked) [Example 29]
inhibition at 100 mg/kg [1]: 62.7%
inhibition at 100 mg/kg [3]: 92.7%
percent agglomerates, size 2 [5]: 9%
percent agglomerates, size 3 [5]: 2%
percent agglomerates, size 4 [5]: 1%
percent agglomerates, size 5 [5]: 0%
percent agglomerates, size 6 [5]: 0%
percent agglomerates, size 7 [5]: 0%
percent agglomerates, size 8 [5]: 0%
percent agglomerates, size 9 [5]: 0%
percent agglomerates, size 10 [5]: 0%
percent free red corpuscles (size of agglomerates 1) [5]: 87%
